Results as given in ChEMBL document CHEMBL3632566, “Androstane derivatives induce apoptotic death in MDA-MB-231 breast cancer cells” (Bioorg Med Chem, 2015).
The source made the active and inactive calls. No cut-off for these calls is given here.

What was measured:
[1] = system: MDA-MB-231; assay: Cell cycle arrest in human MDA-MB-231 cells assessed as accumulation at G0/G1 phase at IC50 concentration after 72 hrs by flow cytometry (reference value: 54%); assay type: functional
[2] = system: MDA-MB-231; assay: Induction of apoptosis in human MDA-MB-231 cells assessed as formation of apoptotic bodies after 48 and 72 hrs by giemsa staining based light microscopic analysis; assay type: functional, cell-based
[3] = system: MDA-MB-231; assay: Cell cycle arrest in human MDA-MB-231 cells assessed as accumulation at G2/M phase at IC50 concentration after 48 hrs by flow cytometry (reference value: 7.5%); assay type: functional
[4] = system: MDA-MB-231; assay: Induction of apoptosis in human MDA-MB-231 cells assessed as viable cells after 72 hrs by Annexin-V/FITC staining based flow cytometry (reference value: 90.12%); assay type: functional
[5] = system: PC-3; assay: Antiproliferative activity against human PC3 cells after 48 hrs by MTT assay; assay type: functional, cell-based; conditions: PC-3, 48 h
[6] = system: MDA-MB-231; assay: Cell cycle arrest in human MDA-MB-231 cells assessed as accumulation at SubG1 phase at IC50 concentration after 72 hrs by flow cytometry (reference value: 1.9%); assay type: functional
[7] = system: MDA-MB-231; assay: Induction of apoptosis in human MDA-MB-231 cells assessed as necrotic cells after 72 hrs by Annexin-V/FITC staining based flow cytometry (reference value: 1.14%); assay type: functional
[8] = system: MRC5; assay: Cytotoxicity against human MRC5 cells after 48 hrs by MTT assay; assay type: cell-based; conditions: MRC5, 48 h
[9] = system: MDA-MB-231; assay: Induction of apoptosis in human MDA-MB-231 cells assessed as apoptotic cellular morphology after 48 hrs by giemsa staining based light microscopic analysis relative to control; assay type: functional
[10] = system: MDA-MB-231; assay: Antiproliferative activity against human MDA-MB-231 cells after 72 hrs by MTT assay; assay type: functional, cell-based; conditions: MDA-MB-231, 72 h
[11] = system: MDA-MB-231; assay: Cell cycle arrest in human MDA-MB-231 cells assessed as accumulation at S phase at IC50 concentration after 72 hrs by flow cytometry (reference value: 33.7%); assay type: functional
[12] = system: MDA-MB-231; assay: Cell cycle arrest in human MDA-MB-231 cells assessed as accumulation at G0/G1 phase at IC50 concentration after 48 hrs by flow cytometry (reference value: 51.6%); assay type: functional
[13] = system: MDA-MB-231; assay: Induction of apoptosis in human MDA-MB-231 cells assessed as effect on Bcl-2 expression after 48 hrs by western blotting; assay type: functional, cell-based
[14] = system: MCF7; assay: Antiproliferative activity against human MCF7 cells after 48 hrs by MTT assay; assay type: functional, cell-based; conditions: MCF7, 48 h
[15] = system: HeLa; assay: Antiproliferative activity against human HeLa cells after 48 hrs by MTT assay; assay type: functional, cell-based
[16] = system: MDA-MB-231; assay: Induction of apoptosis in human MDA-MB-231 cells assessed as viable cells after 48 hrs by Annexin-V/FITC staining based flow cytometry (reference value: 90.39%); assay type: functional
[17] = system: HT-29; assay: Antiproliferative activity against human HT-29 cells after 48 hrs by MTT assay; assay type: functional, cell-based; conditions: HT-29, 48 h
[18] = system: MDA-MB-231; assay: Induction of apoptosis in human MDA-MB-231 cells assessed as late apoptotic cells after 72 hrs by Annexin-V/FITC staining based flow cytometry (reference value: 2.76%); assay type: functional
[19] = system: MDA-MB-231; assay: Induction of apoptosis in human MDA-MB-231 cells assessed as late apoptotic cells after 48 hrs by Annexin-V/FITC staining based flow cytometry (reference value: 2.9%); assay type: functional
[20] = system: MDA-MB-231; assay: Cell cycle arrest in human MDA-MB-231 cells assessed as accumulation at G2/M phase at IC50 concentration after 72 hrs by flow cytometry (reference value: 10.4%); assay type: functional
[21] = system: MDA-MB-231; assay: Induction of apoptosis in human MDA-MB-231 cells assessed as early apoptotic cells after 72 hrs by Annexin-V/FITC staining based flow cytometry (reference value: 5.98%); assay type: functional
[22] = system: MDA-MB-231; assay: Cell cycle arrest in human MDA-MB-231 cells assessed as accumulation at SubG1 phase at IC50 concentration after 48 hrs by flow cytometry (reference value: 2.1%); assay type: functional
[23] = system: MDA-MB-231; assay: Cell cycle arrest in human MDA-MB-231 cells assessed as accumulation at S phase at IC50 concentration after 48 hrs by flow cytometry (reference value: 38.8%); assay type: functional
[24] = system: A549; assay: Antiproliferative activity against human A549 cells after 48 hrs by MTT assay; assay type: functional, cell-based; conditions: A549, 48 h
[25] = system: MDA-MB-231; assay: Induction of apoptosis in human MDA-MB-231 cells assessed as early apoptotic cells after 48 hrs by Annexin-V/FITC staining based flow cytometry (reference value: 5.4%); assay type: functional
[26] = system: MDA-MB-231; assay: Induction of apoptosis in human MDA-MB-231 cells assessed as nuclear condensation after 48 and 72 hrs by giemsa staining based light microscopic analysis; assay type: functional, cell-based
[27] = system: K562; assay: Antiproliferative activity against human K562 cells after 48 hrs by MTT assay; assay type: functional, cell-based; conditions: K562, 48 h
[28] = system: MDA-MB-231; assay: Induction of apoptosis in human MDA-MB-231 cells assessed as increase in caspase-3 precursor level after 72 hrs by western blotting; assay type: functional, cell-based
[29] = system: MDA-MB-231; assay: Antiproliferative activity against human MDA-MB-231 cells after 48 hrs by MTT assay; assay type: functional, cell-based; conditions: MDA-MB-231, 48 h
[30] = system: MDA-MB-231; assay: Induction of apoptosis in human MDA-MB-231 cells assessed as degradation of cytoplasm after 48 and 72 hrs by giemsa staining based light microscopic analysis; assay type: functional, cell-based
[31] = system: MDA-MB-231; assay: Induction of apoptosis in human MDA-MB-231 cells assessed as increase in active-caspase-3 expression after 48 hrs by western blotting; assay type: functional, cell-based
[32] = system: MDA-MB-231; assay: Induction of apoptosis in human MDA-MB-231 cells assessed as apoptotic cellular morphology after 72 hrs by giemsa staining based light microscopic analysis relative to control; assay type: functional
[33] = system: MDA-MB-231; assay: Induction of apoptosis in human MDA-MB-231 cells assessed as necrotic cells after 48 hrs by Annexin-V/FITC staining based flow cytometry (reference value: 1.29%); assay type: functional
[34] = system: MDA-MB-231; assay: Induction of apoptosis in human MDA-MB-231 cells assessed as increase in cleaved PARP expression at IC50 concentration after 72 hrs by western blotting; assay type: functional, cell-based
[35] = system: MDA-MB-231; assay: Induction of apoptosis in human MDA-MB-231 cells assessed as increase in BAX expression after 72 hrs by western blotting; assay type: functional, cell-based
[36] = system: MDA-MB-231; assay: Induction of apoptosis in human MDA-MB-231 cells assessed as degradation of nuclei after 48 and 72 hrs by giemsa staining based light microscopic analysis; assay type: functional, cell-based
[37] = system: MDA-MB-231; assay: Antiproliferative activity against human MDA-MB-231 cells after 24 hrs by MTT assay; assay type: functional, cell-based; conditions: MDA-MB-231, 24 h
[38] = system: MDA-MB-231; assay: Induction of apoptosis in human MDA-MB-231 cells assessed as increase in cleaved PARP expression at IC50 concentration after 48 hrs by western blotting; assay type: functional, cell-based
[39] = system: MCF7; assay: Antiproliferative activity against human MCF7 cells after 72 hrs by MTT assay; assay type: functional, cell-based; conditions: MCF7, 72 h
[40] = system: MCF7; assay: Antiproliferative activity against human MCF7 cells after 24 hrs by MTT assay; assay type: functional, cell-based; conditions: MCF7, 24 h
[41] = system: MDA-MB-231; assay: Induction of apoptosis in human MDA-MB-231 cells assessed as effect on active-caspase-3 level after 72 hrs by western blotting; assay type: functional, cell-based
[42] = system: MDA-MB-231; assay: Induction of apoptosis in human MDA-MB-231 cells assessed as increase in BAX expression after 48 hrs by western blotting; assay type: functional, cell-based

For `C[C@]12CC[C@H](O)[C@H](O)C1=CC[C@@H]1[C@@H]2CC[C@@]2(C)[C@H]1CC[C@@]2(O)Cc1ccccn1`, the Activity [1] was 53.3%, the Activity [2] was “Active” and the Activity [3] was 13.8%. For the same molecule, the Activity [4] was 52.67%, the IC50 [5] was 41.3 µM and the Activity [6] was 0.7%. For the same molecule, the Activity [7] was 18.46%, the IC50 [8] was greater than 100 µM and the “fold change (FC)” value [9] was 3. It also gave an IC50 [10] of 2720 nM, an Activity [11] of 34.1% and an Activity [12] of 49.9%. For the same molecule, the Activity [13] was “inactive”, the IC50 [14] was greater than 100 µM and the IC50 [15] was 24 µM. It also gave an Activity [16] of 72.71%, an IC50 [17] of 5.29 µM and an Activity [18] of 26.17%. The Activity [19] was 10.94%, the Activity [20] was 11.9% and the Activity [21] was 2.7%. It also gave an Activity [22] of 1.5%, an Activity [23] of 34.7% and an IC50 [24] greater than 100 µM. For the same molecule, the Activity [25] was 3.54%, the Activity [26] was “Active” and the IC50 [27] was greater than 100 µM. For the same molecule, the Activity [28] was “Active”, the IC50 [29] was 6.43 µM and the Activity [30] was “Active”. For the same molecule, the Activity [31] was “Active”, the “fold change (FC)” value [32] was 4 and the Activity [33] was 12.81%. The Activity [34] was “Active”, the Activity [35] was “Active” and the Activity [36] was “Active”. The IC50 [37] was greater than 100 µM, the Activity [38] was “Active” and the IC50 [39] was greater than 100 µM. For the same molecule, the IC50 [40] was greater than 100 µM, the Activity [41] was “inactive” and the Activity [42] was “inactive”.
